Reference: patent US20150157021A1, “NEW ANTIFUNGAL COMPOSITIONS” (DSM IP ASSETS B.V., priority 2012, published 2015)

How the values were obtained:
Type in all cases: in vivo
Penicillium italicum = assay: Treatment of wounded oranges inoculated with Penicillium italicum (Examples 7, 8); details: 20° C.
Experimental: Ten fresh, organic oranges were used per treatment. Each orange was soaked in a 180 ppm hypochlorite solution for 10 minutes, then rinsed thoroughly with fresh tap water and dried. The peel of each disinfected orange was wounded once using a cork borer according to the method described by de Lapeyre de Bellaire and Dubois (1987). Subsequently, each wound was inoculated with 10 μl of a Penicillium italicum suspension containing 1×10^5 of spores/ml. After incubation for 3 hours at 20° C., each wound and the orange peel area of 1 cm around the wound was treated with in total 150 μl of a freshly prepared aqueous antifungal composition comprising either 500 ppm natamycin (DSM Food Specialties, Delft, The Netherlands), 800 ppm boscalid or both. Each antifungal composition also comprised 3.2% (w/w) beeswax, 0.8% (w/w) glycerol, 0.7% (w/w) polyoxyethylene sorbitan monostearate (Tween 60), 0.2% (w/w) polyoxyethylene sorbitan monooleate (Tween 80), 0.05% (w/w) methylhydroxyethyl-cellulose (MHEC), 0.03% (w/w) anti-foaming agent, 0.02% (w/w) xanthan gum, 0.02% (w/w) citric acid, 0.01% (w/w) lactic acid and 0.01% potassium sorbate. A composition without natamycin or boscalid was used as control. […] The treated oranges were incubated in a closed box in the dark at 20° C. and assessed on mould growth during a 17-day incubation period. The antifungal activity (in %) of the individual and combined active ingredients was determined by calculating the reduction in mould growth observed on the oranges treated with the antifungal composition in comparison to the mould growth on the oranges treated with the control composition according to the Colby method (Colby, 1967) described in Example 5.
The experiment was conducted as described in Example 7, except for the fact that each wounded and inoculated orange was treated with 150 μl of a freshly prepared aqueous antifungal composition comprising either 250 ppm natamycin (DSM Food Specialties, Delft, The Netherlands), 400 ppm boscalid or both. The treated oranges were incubated in a closed box in the dark at 20° C. and assessed on mould growth during a 18-day incubation period. During incubation, the treated oranges were assessed on mould growth according to the method described in Example 7.

Botrytis cinerea [1] = assay: Treatment of wounded sweet peppers inoculated with Botrytis cinerea (Examples 9, 10); details: 20° C., 400 ppm natamycin
Experimental: Ten fresh, organic sweet peppers were used per treatment. Each sweet pepper was soaked in a 180 ppm hypochlorite solution for 10 minutes, then rinsed thoroughly with fresh tap water and dried. The peel of each disinfected sweet pepper was wounded once using a cork borer according to the method described by de Lapeyre de Bellaire and Dubois (1987). Subsequently, each wound was inoculated with 10 μl of a Botrytis cinerea suspension containing 1×10^5 of spores/ml. After incubation for 3 hours at 20° C., each wound and the skin area of 0.5 cm around the wound was treated with in total 75 μl of a freshly prepared aqueous antifungal composition comprising either 400 ppm natamycin (DSM Food Specialties, Delft, The Netherlands), 600 ppm fenhexamid or both. Each antifungal composition also comprised 3.2% (w/w) beeswax, 0.8% (w/w) glycerol, 0.7% (w/w) polyoxyethylene sorbitan monostearate (Tween 60), 0.2% (w/w) polyoxyethylene sorbitan monooleate (Tween 80), 0.05% (w/w) methylhydroxyethyl-cellulose (MHEC), 0.03% (w/w) anti-foaming agent, 0.02% (w/w) xanthan gum, 0.02% (w/w) citric acid, 0.01% (w/w) lactic acid and 0.01% potassium sorbate. A composition without natamycin or fenhexamid was used as control.
The treated sweet peppers were incubated in a closed box in the dark at 20° C. and assessed on mould growth during a 26-day incubation period. The antifungal activity (in %) of the individual and combined active ingredients was determined by calculating the reduction in mould growth observed on the sweet peppers treated with the antifungal composition in comparison to the mould growth on the sweet peppers treated with the control composition according to the Colby method (Colby, 1967) described in Example 5.
The experiment was conducted as described in Example 9, except for the fact that each wounded and inoculated sweet pepper was treated with 75 μl of a freshly prepared aqueous antifungal composition comprising either 400 ppm natamycin (DSM Food Specialties, Delft, The Netherlands), 800 ppm carboxin or both. The treated sweet peppers were incubated in a closed box in the dark at 20° C. and assessed on mould growth during a 26-day incubation period. During incubation, the treated sweet peppers were assessed on mould growth according to the method described in Example 9.

Botrytis cinerea [2] = assay: Treatment of wounded strawberries inoculated with Botrytis cinerea (Examples 5, 6); details: for Observed antifungal activity O (%): strawberries, 20° C.
Experimental: Twelve fresh, organic strawberries were used per treatment. Each strawberry was wounded with a 0.5 mm long cut and each wound was inoculated with 10 μl of a Botrytis cinerea suspension containing 1×10^5 of spores/ml. After a 3-hour incubation period at 20° C., each strawberry was dipped individually for 1 minute in a freshly prepared aqueous antifungal composition comprising either 500 ppm natamycin (DSM Food Specialties, Delft, The Netherlands), 500 ppm fenhexamid or both. Each antifungal composition also comprised 3.2% (w/w) beeswax, 0.8% (w/w) glycerol, 0.7% (w/w) polyoxyethylene sorbitan monostearate (Tween 60), 0.1% (w/w) polyoxyethylene sorbitan monooleate (Tween 80), 0.05% (w/w) methylhydroxyethyl-cellulose (MHEC), 0.03% (w/w) anti-foaming agent, 0.02% (w/w) xanthan gum, 0.02% (w/w) citric acid, 0.01% (w/w) lactic acid and 0.01% potassium sorbate. A composition without natamycin or fenhexamid was used as control. […] The treated strawberries were incubated in a closed box in the dark at 20° C. for 11 days.
The expected antifungal activity (E in %) of the combined antifungal composition comprising both active ingredients was calculated according to the Colby equation (Colby, 1967): […]
wherein X and Y are the observed antifungal activities (in %) of the individual active ingredients X and Y, respectively.
The experiment was conducted as described in Example 5, except for the fact that each wounded and inoculated strawberry was dipped individually for 1 minute in a freshly prepared aqueous antifungal composition comprising either 250 ppm natamycin (DSM Food Specialties, Delft, The Netherlands), 250 ppm fenhexamid or both. The treated strawberries were incubated in a closed box in the dark at 20° C. for 10 days. During incubation, the treated strawberries were assessed on mould growth according to the two methods described in Example 5.

O=C(Nc1ccccc1-c1ccc(Cl)cc1)c1cccnc1Cl [Boscalid, boscalid]
Observed antifungal activity O (%) (Penicillium italicum; 7 days, 500 ppm natamycin, 800 ppm boscalid or both): 54% | Observed antifungal activity O (%) (Penicillium italicum; 8 days, 500 ppm natamycin, 800 ppm boscalid or both): 40% | Observed antifungal activity O (%) (Penicillium italicum; 9 days, 500 ppm natamycin, 800 ppm boscalid or both): 39% | Observed antifungal activity O (%) (Penicillium italicum; 10 days, 500 ppm natamycin, 800 ppm boscalid or both): 29% | Observed antifungal activity O (%) (Penicillium italicum; 11 days, 250 ppm natamycin, 400 ppm boscalid or both): 35% | Observed antifungal activity O (%) (Penicillium italicum; 11 days, 500 ppm natamycin, 800 ppm boscalid or both): 35% | Observed antifungal activity O (%) (Penicillium italicum; 12 days, 250 ppm natamycin, 400 ppm boscalid or both): 22% | Observed antifungal activity O (%) (Penicillium italicum; 12 days, 500 ppm natamycin, 800 ppm boscalid or both): 18% | Observed antifungal activity O (%) (Penicillium italicum; 13 days, 250 ppm natamycin, 400 ppm boscalid or both): 24% | Observed antifungal activity O (%) (Penicillium italicum; 13 days, 500 ppm natamycin, 800 ppm boscalid or both): 20% | Observed antifungal activity O (%) (Penicillium italicum; 14 days, 250 ppm natamycin, 400 ppm boscalid or both): 15% | Observed antifungal activity O (%) (Penicillium italicum; 14 days, 500 ppm natamycin, 800 ppm boscalid or both): 8% | Observed antifungal activity O (%) (Penicillium italicum; 15 days, 250 ppm natamycin, 400 ppm boscalid or both): 10% | Observed antifungal activity O (%) (Penicillium italicum; 15 days, 500 ppm natamycin, 800 ppm boscalid or both): 8% | Observed antifungal activity O (%) (Penicillium italicum; 17 days, 250 ppm natamycin, 400 ppm boscalid or both): 6% | Observed antifungal activity O (%) (Penicillium italicum; 17 days, 500 ppm natamycin, 800 ppm boscalid or both): 0% | Observed antifungal activity O (%) (Penicillium italicum; 18 days, 250 ppm natamycin, 400 ppm boscalid or both): 1%

CC1=C(C(=O)Nc2ccccc2)SCCO1 [Carboxin, carboxin]
Observed antifungal activity O (%) (Botrytis cinerea [1]; 17-19 days, 800 ppm carboxin or both): 67% | Observed antifungal activity O (%) (Botrytis cinerea [1]; 20-21 days, 800 ppm carboxin or both): 55% | Observed antifungal activity O (%) (Botrytis cinerea [1]; 22 days, 800 ppm carboxin or both): 45% | Observed antifungal activity O (%) (Botrytis cinerea [1]; 24 days, 800 ppm carboxin or both): 42% | Observed antifungal activity O (%) (Botrytis cinerea [1]; 25 days, 800 ppm carboxin or both): 41% | Observed antifungal activity O (%) (Botrytis cinerea [1]; 26 days, 800 ppm carboxin or both): 38%

CC1(C(=O)Nc2ccc(O)c(Cl)c2Cl)CCCCC1 [Fenhexamid, fenhexamid]
Observed antifungal activity O (%) (Botrytis cinerea [1]; 13-17 days, 600 ppm fenhexamid or both): 0% | Observed antifungal activity O (%) (Botrytis cinerea [1]; 18-22 days, 600 ppm fenhexamid or both): 0% | Observed antifungal activity O (%) (Botrytis cinerea [1]; 6 days, 600 ppm fenhexamid or both): 0% | Observed antifungal activity O (%) (Botrytis cinerea [1]; 8 days, 600 ppm fenhexamid or both): 0% | Observed antifungal activity O (%) (Botrytis cinerea [1]; 10 days, 600 ppm fenhexamid or both): 00% | Observed antifungal activity O (%) (Botrytis cinerea [1]; 11 days, 600 ppm fenhexamid or both): 0% | Observed antifungal activity O (%) (Botrytis cinerea [1]; 24 days, 600 ppm fenhexamid or both): 0% | Observed antifungal activity O (%) (Botrytis cinerea [1]; 25 days, 600 ppm fenhexamid or both): 0% | Observed antifungal activity O (%) (Botrytis cinerea [1]; 26 days, 600 ppm fenhexamid or both): 0% | Number of moulded strawberries/total number of 12 strawberries (Botrytis cinerea [2]; Day 5, 20° C., 250 ppm natamycin, 250 ppm fenhexamid or both): 11/12 | Number of moulded strawberries/total number of 12 strawberries (Botrytis cinerea [2]; Day 5, 20° C., 250 ppm natamycin, 250 ppm fenhexamid or both, listed as fenhexamid): 11 | Number of moulded strawberries/total number of 12 strawberries (Botrytis cinerea [2]; Day 6, 20° C., 500 ppm natamycin, 500 ppm fenhexamid or both): 12/12 | Number of moulded strawberries/total number of 12 strawberries (Botrytis cinerea [2]; Day 6-7, 20° C., 250 ppm natamycin, 250 ppm fenhexamid or both): 11/12 | Number of moulded strawberries/total number of 12 strawberries (Botrytis cinerea [2]; Day 6-7, 20° C., 250 ppm natamycin, 250 ppm fenhexamid or both, listed as fenhexamid): 11 | Number of moulded strawberries/total number of 12 strawberries (Botrytis cinerea [2]; Day 7-8, 20° C., 500 ppm natamycin, 500 ppm fenhexamid or both): 12/12 | Number of moulded strawberries/total number of 12 strawberries (Botrytis cinerea [2]; Day 8, 20° C., 250 ppm natamycin, 250 ppm fenhexamid or both): 12/12 | Number of moulded strawberries/total number of 12 strawberries (Botrytis cinerea [2]; Day 8, 20° C., 250 ppm natamycin, 250 ppm fenhexamid or both, listed as fenhexamid): 12 | Number of moulded strawberries/total number of 12 strawberries (Botrytis cinerea [2]; Day 9, 20° C., 500 ppm natamycin, 500 ppm fenhexamid or both): 12/12 | Number of moulded strawberries of 12 (Botrytis cinerea [2]; after 6 through 9 days of incubation, 500 ppm natamycin alone or 500 ppm fenhexamid alone): 12 | Observed antifungal activity O (%) (Botrytis cinerea [2]; 4 days, 500 ppm natamycin, 500 ppm fenhexamid or both): 22% | Observed antifungal activity O (%) (Botrytis cinerea [2]; 5 days, 500 ppm natamycin, 500 ppm fenhexamid or both): 25% | Observed antifungal activity O (%) (Botrytis cinerea [2]; 6 days, 500 ppm natamycin, 500 ppm fenhexamid or both): 0% | Observed antifungal activity O (%) (Botrytis cinerea [2]; 7 days, 500 ppm natamycin, 500 ppm fenhexamid or both): 0% | Observed antifungal activity O (%) (Botrytis cinerea [2]; 8 days, 250 ppm natamycin, 250 ppm fenhexamid or both): 7.5% | Observed antifungal activity O (%) (Botrytis cinerea [2]; 8 days, 500 ppm natamycin, 500 ppm fenhexamid or both): 0% | Observed antifungal activity O (%) (Botrytis cinerea [2]; 9 days, 250 ppm natamycin, 250 ppm fenhexamid or both): 0% | Observed antifungal activity O (%) (Botrytis cinerea [2]; 9 days, 500 ppm natamycin, 500 ppm fenhexamid or both): 0% | Observed antifungal activity O (%) (Botrytis cinerea [2]; 10 days, 250 ppm natamycin, 250 ppm fenhexamid or both): 0% | Observed antifungal activity O (%) (Botrytis cinerea [2]; 10 days, 500 ppm natamycin, 500 ppm fenhexamid or both): 0% | Observed antifungal activity O (%) (Botrytis cinerea [2]; 11 days, 500 ppm natamycin, 500 ppm fenhexamid or both): 0%
